Like-named read-outs stand apart in the source and are kept apart here.
Tests used:
Assay type in all cases: biochemical
Cathepsin L = Cathepsin L (Homo sapiens, UniProt P07711); assay: Cathepsin L inhibition, fluorogenic peptide substrate kinetic assay (selectivity); conditions: ratio of cathepsin L inhibition constant to cathepsin S inhibition constant
Cathepsin B = Cathepsin B (Homo sapiens, UniProt P07858); assay: Cathepsin B inhibition, fluorogenic peptide substrate kinetic assay (selectivity); conditions: ratio of cathepsin B inhibition constant to cathepsin S inhibition constant;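 note: value is the cathepsin B inhibition constant divided by the cathepsin S one, each from kinetic fluorescence readings (ex 380 nm, em 450 nm) of a 10 µM coumarin peptide substrate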
Cathepsin K = target: T1, Cathepsin K (Homo sapiens, UniProt P43235); assay: Cathepsin K inhibition, fluorogenic peptide substrate kinetic assay (selectivity); conditions: ratio of cathepsin K inhibition constant to cathepsin S inhibition constant
T1 sequence (P43235 115-329): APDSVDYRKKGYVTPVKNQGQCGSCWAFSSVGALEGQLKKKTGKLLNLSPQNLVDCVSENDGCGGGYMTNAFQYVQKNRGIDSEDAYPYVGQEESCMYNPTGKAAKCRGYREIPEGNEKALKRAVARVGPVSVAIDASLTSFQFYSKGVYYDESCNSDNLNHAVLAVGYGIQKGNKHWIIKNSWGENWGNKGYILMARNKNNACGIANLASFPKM

Cathepsin S = Cathepsin S (Homo sapiens, UniProt P25774); assay: Cathepsin S inhibition, fluorogenic peptide substrate kinetic assay;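 note: cleavage rate of a coumarin-labelled peptide substrate (50 µM) read as fluorescence increase at Ex 380 nm and Em 450 nm, relative to inhibitor-free control reactions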
Sequence of Cathepsin S (P25774 115-331, species assumed): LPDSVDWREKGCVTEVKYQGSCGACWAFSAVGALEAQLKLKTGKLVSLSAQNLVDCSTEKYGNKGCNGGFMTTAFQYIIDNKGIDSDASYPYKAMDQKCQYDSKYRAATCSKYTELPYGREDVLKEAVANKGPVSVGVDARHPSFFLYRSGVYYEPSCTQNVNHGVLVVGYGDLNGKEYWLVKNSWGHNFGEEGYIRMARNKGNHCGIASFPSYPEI

[1] = Cathepsin S inhibition constant, pH5.5, 20 minutes preincubation at room temperature, read-out: Ki Cat. S

Sequence of Cathepsin L (P07711 114-333, species assumed): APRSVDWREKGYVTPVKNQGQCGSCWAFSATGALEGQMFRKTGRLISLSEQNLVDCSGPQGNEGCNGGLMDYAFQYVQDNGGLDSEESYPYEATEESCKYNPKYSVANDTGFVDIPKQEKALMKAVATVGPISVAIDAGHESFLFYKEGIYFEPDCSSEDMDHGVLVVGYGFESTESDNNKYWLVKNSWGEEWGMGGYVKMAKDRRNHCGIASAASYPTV

| SMILES | Selectivity for Cat. S over Cat. L (Cathepsin L) | Selectivity for Cat. S over Cat. B (Cathepsin B) | Selectivity for Cat. S over Cat. K (Cathepsin K) | Ki (Cathepsin S; [1]) [µM] | Ki (Cathepsin S) [µM] |
| --- | --- | --- | --- | --- | --- |
| O=C(NCCNc1ccc(F)cc1)[C@H](CC1CCCCC1)NC(=O)N1CCOCC1 [Example 3, Morpholine-4-carboxylic acid {2-cyclohexyl-1-(S)-[2-(4-fluoro-phenylamino)-ethylcarbamoyl]-ethyl}-amide] | + (+, >10) | ++ (++, >100) | ++ (++, >100) | < 0.1 | – |
| COc1ccc(NCCNC(=O)[C@H](CC2CCCCC2)NC(=O)N2CCOCC2)cc1 [Example 4, Morpholine-4-carboxylic acid {2-cyclohexyl-1-(S)-[2-(4-methoxy-phenylamino)-ethylcarbamoyl]-ethyl}-amide] | + (+, >10) | +++ (+++, >1000) | ++ (++, >100) | < 0.1 | – |
| O=C(NCCNc1ccc(F)cc1)O[C@@H](CC1CCCCC1)C(=O)N1CCOCC1 [Example 5, [2-(4-Fluoro-phenylamino)-ethyl]-carbamic acid 1-(S)-cyclohexylmethyl-2-morpholin-4-yl-2-oxo-ethyl ester] | + (+, >10) | + (+, >10) | + (+, >10) | 1 to 10 | – |
| O=C(NCCNc1ccc(F)cc1)[C@@H](CC(=O)N1CCOCC1)CC1CCCCC1 [Example 6, 2-(R)-Cyclohexylmethyl-N-[2-(4-fluoro-phenylamino)-ethyl]-4-morpholin-4-yl-4-oxo-butyramide] | + (+, >10) | + (+, >10) | + (+, >10) | – | 1 to 10 |
| CC1(C)CN([C@H]2COC[C@@H]2NC(=O)O[C@@H](CC2CCCCC2)C(=O)N2CCOCC2)c2ccc(F)cc21 [Example 7, [4-(R)-(5-Fluoro-3,3-dimethyl-2,3-dihydro-indol-1-yl)-tetrahydro-furan-3-(R)-yl]-carbamic acid 1-(S)-cyclohexylmethyl-2-morpholin-4-yl-2-oxo-ethyl ester] | + (+, >10) | + (+, >10) | + (+, >10) | 1 to 10 | – |
| C[C@@H](CN1CCc2cc(F)ccc21)NC(=O)[C@@H](CC(=O)N1CCOCC1)CC1CCCCC1 [Example 8, 2-(R)-Cyclohexylmethyl-N-[2-(5-fluoro-2,3-dihydro-indol-1-yl)-1-(S)-methyl-ethyl]-4-morpholin-4-yl-4-oxo-butyramide] | ++ (++, >100) | +++ (+++, >1000) | ++ (++, >100) | < 0.1 | – |
| O=C(C[C@@H](CC1CCCCC1)C(=O)N1CCOCC1)NCCNc1ccc(F)cc1 [Example 9, 3-(R)-Cyclohexylmethyl-N-[2-(4-fluoro-phenylamino)-ethyl]-4-morpholin-4-yl-4-oxo-butyramide] | + (+, >10) | + (+, >10) | + (+, >10) | – | 1 to 10 |
| C[C@@H](CN1CCc2cc(F)ccc21)NC(=O)[C@H](CC1CCCCC1)OC(=O)N1CCOCC1 [Example 12, Morpholine-4-carboxylic acid 2-cyclohexyl-1-(S)-[2-(5-fluoro-2,3-dihydro-indol-1-yl)-1-(S)-methyl-ethylcarbamoyl]-ethyl ester] | + (+, >10) | ++ (++, >100) | + (+, >10) | 0.1 to 1 | – |
| O=C(NCCNc1ccc(OC(F)(F)F)cc1)[C@@H](CC(=O)N1CCOCC1)CC1CCCCC1 [Example 13, 2-(R)-Cyclohexylmethyl-4-morpholin-4-yl-4-oxo-N-[2-(4-trifluoromethoxy-phenylamino)-ethyl]-butyramide] | ++ (++, >100) | ++ (++, >100) | ++ (++, >100) | – | 0.1 to 1 |
| C[C@@H](CNc1ccc(OC(F)(F)F)cc1)NC(=O)[C@@H](CC(=O)N1CCOCC1)CC1CCCCC1 [Example 14, 2-(R)-Cyclohexylmethyl-N-[1-(S)-methyl-2-(4-trifluoromethoxy-phenylamino)-ethyl]-4-morpholin-4-yl-4-oxo-butyramide] | ++ (++, >100) | +++ (+++, >1000) | ++ (++, >100) | – | < 0.1 |
| C[C@@H](CNc1ccc(OC(F)(F)F)cc1)NC(=O)[C@@H](CC(=O)N1CCOCC1)CC1CCCC1 [Example 15, 2-(R)-Cyclopentylmethyl-N-[1-(S)-methyl-2-(4-trifluoromethoxy-phenylamino)-ethyl]-4-morpholin-4-yl-4-oxo-butyramide] | ++ (++, >100) | +++ (+++, >1000) | ++ (++, >100) | – | < 0.1 |

More lines, now with the values ahead:

| Selectivity for Cat. S over Cat. L (Cathepsin L) | Selectivity for Cat. S over Cat. B (Cathepsin B) | Selectivity for Cat. S over Cat. K (Cathepsin K) | Ki (Cathepsin S; [1]) [µM] | Ki (Cathepsin S) [µM] | SMILES |
| --- | --- | --- | --- | --- | --- |
| + (+, >10) | ++ (++, >100) | + (+, >10) | 0.1 to 1 | – | C[C@@H](CNc1ccc(OC(F)(F)F)cc1)NC(=O)[C@H](CC1CCCC1)[C@@H](C)C(=O)N1CCOCC1 [Example 16, 2-(R)-Cyclopentylmethyl-3-(R)-methyl-N-[1-(S)-methyl-2-(4-trifluoromethoxy-phenylamino)-ethyl]-4-morpholin-4-yl-4-oxo-butyramide] |
| ++ (++, >100) | ++ (++, >100) | +++ (+++, >1000) | < 0.1 | – | C[C@@H](CNc1ccc(OC(F)(F)F)cc1)NC(=O)[C@H](CS(=O)(=O)Cc1ccccc1)NC(=O)N1CCOCC1 [Example 18, Morpholine-4-carboxylic acid {1-(R)-[1-(S)-methyl-2-(4-trifluoromethoxy-phenylamino)-ethylcarbamoyl]-2-phenylmethanesulfonyl-ethyl}-amide] |
| ++ (++, >100) | ++ (++, >100) | ++ (++, >100) | 0.1 to 1 | – | COc1ccc(NCCNC(=O)[C@@H](CC(=O)N2CCOCC2)CC2CCCCC2)cc1 [Example 19, (R)-2-Cyclohexylmethyl-N-[2-(4-methoxy-phenylamino)-ethyl]-4-morpholin-4-yl-4-oxo-butyramide] |
| + (+, >10) | +++ (+++, >1000) | + (+, >10) | – | < 0.1 | CCC[C@@H](CNc1ccc(OC(F)(F)F)cc1)NC(=O)[C@@H](CC(=O)N1CCOCC1)CC1CCCCC1 [Example 20, 2-(R)-Cyclohexylmethyl-4-morpholin-4-yl-4-oxo-N-{1-(S)-[(4-trifluoromethoxy-phenylamino)-methyl]-butyl}-butyramide] |
| +++ (+++, >1000) | +++ (+++, >1000) | ++ (++, >100) | – | < 0.1 | C[C@@H](CNc1ccc(OC(F)(F)F)cc1)NC(=O)[C@H](CCC1CCCCC1)CC(=O)N1CCOCC1 [Example 21, 2-(R)-(2-Cyclohexyl-ethyl)-N-[1-(S)-methyl-2-(4-trifluoromethoxy-phenylamino)-ethyl]-4-morpholin-4-yl-4-oxo-butyramide] |
| + (+, >10) | +++ (+++, >1000) | + (+, >10) | – | < 0.1 | CC[C@@H](CNc1ccc(OC(F)(F)F)cc1)NC(=O)[C@@H](CC(=O)N1CCOCC1)CC1CCCCC1 [Example 22, 2-(R)-Cyclohexylmethyl-4-morpholin-4-yl-4-oxo-N-{1-(S)-[(4-trifluoromethoxy-phenylamino)-methyl]-propyl}-butyramide] |
| ++ (++, >100) | ++ (++, >100) | ++ (++, >100) | – | 0.1 to 1 | C[C@@H](CNc1ccc(OC(F)(F)F)cc1)NC(=O)[C@H](CCC(C)(C)C)CC(=O)N1CCOCC1 [Example 25, 5,5-Dimethyl-2-(R)-(2-morpholin-4-yl-2-oxo-ethyl)-hexanoic acid [1-(S)-methyl-2-(4-trifluoromethoxy-phenylamino)-ethyl]-amide] |
| ++ (++, >100) | +++ (+++, >1000) | + (+, >10) | – | < 0.1 | CCC[C@@H](CNc1ccc(OC(F)(F)F)cc1)NC(=O)[C@@H](CC(=O)N1CCOCC1)CC1CCCC1 [Example 27, 2-(R)-Cyclopentylmethyl-4-morpholin-4-yl-4-oxo-N-{1-(S)-[(4-trifluoromethoxy-phenylamino)-methyl]-butyl}-butyramide] |
| + (+, >10) | +++ (+++, >1000) | + (+, >10) | – | < 0.1 | CC(C)[C@@H](CNc1ccc(OC(F)(F)F)cc1)NC(=O)[C@@H](CC(=O)N1CCOCC1)c1ccccc1 [Example 34, N-{2-Methyl-1-(S)-[(4-trifluoromethoxy-phenylamino)-methyl]-propyl}-4-morpholin-4-yl-4-oxo-2-(S)-phenyl-butyramide] |
| ++ (++, >100) | +++ (+++, >1000) | + (+, >10) | < 0.1 | – | CC(C)[C@@H](CNc1ccc(OC(F)(F)F)cc1)NC(=O)[C@@H](CC(=O)N1CCOCC1)C1CCCCC1 [Example 35, 2-(S)-Cyclohexyl-N-{2-methyl-1-(S)-[(4-trifluoromethoxy-phenylamino)-methyl]-propyl}-4-morpholin-4-yl-4-oxo-butyramide] |

— patent US7732449B2, “Inhibitors of cathepsin S” (IRM LLC, priority 2003, dated 2010)
